Patent publication US20210323976A1, “HETEROARYL COMPOUNDS FOR KINASE INHIBITION” (ARIAD Pharmaceuticals, Inc., priority 2015, published 2021)
pIC50: −log10 of the molar value.

Tests used:
Assay type in all cases: cell-based
[1] = target: T1, EGFR exon 21 L858R and T790M mutation (Homo sapiens, UniProt P00533, L858R/T790M); experiment: Ba/F3-EGFR L858R/T790M cell anti-proliferation assay (MTS); conditions: Ba/F3-EGFR L858R/T790M cells, 72 h, MTS signal
T1 construct: expressed in transfected cells; host or cells: Ba/F3 (murine pro-B) cells, lentiviral transduction with pLVX-IRES puro
T1 sequence (P00533 25-1210 T790M/L858R): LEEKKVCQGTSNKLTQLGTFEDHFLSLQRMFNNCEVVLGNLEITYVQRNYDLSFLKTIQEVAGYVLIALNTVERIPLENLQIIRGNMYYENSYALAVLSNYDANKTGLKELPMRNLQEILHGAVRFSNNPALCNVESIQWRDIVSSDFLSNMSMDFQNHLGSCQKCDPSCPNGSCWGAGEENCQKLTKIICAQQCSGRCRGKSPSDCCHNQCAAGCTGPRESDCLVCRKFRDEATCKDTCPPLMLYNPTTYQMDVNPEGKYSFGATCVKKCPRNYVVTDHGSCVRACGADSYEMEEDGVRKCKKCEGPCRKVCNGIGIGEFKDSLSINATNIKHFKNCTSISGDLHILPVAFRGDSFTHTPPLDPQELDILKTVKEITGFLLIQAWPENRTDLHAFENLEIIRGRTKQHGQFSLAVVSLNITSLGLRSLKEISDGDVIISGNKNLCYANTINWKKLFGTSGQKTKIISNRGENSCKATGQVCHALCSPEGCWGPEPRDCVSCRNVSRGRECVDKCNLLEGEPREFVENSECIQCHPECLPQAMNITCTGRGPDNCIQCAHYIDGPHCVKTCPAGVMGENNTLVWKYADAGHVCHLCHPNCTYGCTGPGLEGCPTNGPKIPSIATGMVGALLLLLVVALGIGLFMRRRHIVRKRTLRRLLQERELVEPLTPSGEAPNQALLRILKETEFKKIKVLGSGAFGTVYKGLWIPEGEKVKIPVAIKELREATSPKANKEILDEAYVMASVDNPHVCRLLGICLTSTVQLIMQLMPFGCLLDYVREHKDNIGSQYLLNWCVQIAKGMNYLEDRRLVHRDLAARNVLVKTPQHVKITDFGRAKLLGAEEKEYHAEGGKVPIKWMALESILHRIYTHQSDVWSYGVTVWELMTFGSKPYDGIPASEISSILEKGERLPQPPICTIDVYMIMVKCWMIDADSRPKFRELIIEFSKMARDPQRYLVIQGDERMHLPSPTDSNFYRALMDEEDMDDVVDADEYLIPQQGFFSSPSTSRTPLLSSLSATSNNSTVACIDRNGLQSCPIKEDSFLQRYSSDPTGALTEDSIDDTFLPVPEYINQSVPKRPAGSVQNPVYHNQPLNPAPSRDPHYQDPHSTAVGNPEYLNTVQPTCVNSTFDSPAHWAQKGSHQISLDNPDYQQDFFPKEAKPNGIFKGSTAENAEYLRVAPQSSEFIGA
Source text: A compound's ability in selectively inhibiting EGFR L858R and T790M concurrent mutations can be assessed using Ba/F3 cells, a murine pro-B cell line, which have been transduced with EGFR L858R and T790M double mutations. An expression vector, pLVX-IRES puro (Clontech) coding for human EGFR L858R and T790M double mutation, was transfected into HEK293 cells by the Trans-Lentiviral ORF Packaging System (Thermo Scientific), to produce virus encoding EGFR L858R and T790M double mutations. Ba/F3 (DSMZ) cells maintained in RPM11640 medium supplemented with 10% fetal bovine serum, 200 pM L-glutamine/200 μg/mL penicillin/200 μg/mL streptomycin (Life Technology) and 10 ng/mL IL-3 (R&D system), were infected by EGFR L858R and T790M double mutation virus and subsequently selected by puromycin (Life Technology) selection and IL-3 depletion. Ba/F3 cells expressing EGFR L858R and T790M double mutation (named Ba/F3-EGFR L858R/T790M) can proliferate in the absence of IL-3. The anti-proliferative activity of compounds was determined as follows: BaF3-EGFR L858R/T790M cells seeded in 96 well plates (2500 cells/well) were treated with test compound (dissolved in DMSO) at a series of concentrations (4-fold dilution, top concentration: 10,000 nM). The plates were incubated for 72 h in a 37° C. incubator with 5% CO2, and the number of viable cells in each well were measured indirectly by CellTiter 96® Aqueous One Solution Cell Proliferation Assay (Promega; this assay is a colorimetric method for determining the number of viable cells through measurement of their metabolic activity by detection of enzymatic conversion of tetrazolium salts into blue formazan derivatives). Reagent (20 pL) was added into each well, and the plates were returned to the incubator for 2 h. The absorbance in each well was then measured at 490 nm using an Envision plate reader (Perkin Elmer). IC50 values were calculated by determining the concentration of compound required to decrease the MTS signal by 50% comparing to the DMSO control in best-fit curves using Microsoft XLfit software or Accelrys Pipeline Pilot.

[2] = target: T2, Her2 exon 20 YVMA insertion (A775_G776ins YVMA) (Homo sapiens, UniProt P04626, INS775YVMA); experiment: Ba/F3-Her2 Exon20 YVMA cell anti-proliferation assay (MTS); conditions: Ba/F3-Her2 Exon20 YVMA cells, 72 h, MTS signal
T2 construct: expressed in transfected cells; host or cells: Ba/F3 (murine pro-B) cells, lentiviral transduction with pLVX-IRES puro
T2 sequence (P04626 with tags, fused parts or gaps INS775YVMA): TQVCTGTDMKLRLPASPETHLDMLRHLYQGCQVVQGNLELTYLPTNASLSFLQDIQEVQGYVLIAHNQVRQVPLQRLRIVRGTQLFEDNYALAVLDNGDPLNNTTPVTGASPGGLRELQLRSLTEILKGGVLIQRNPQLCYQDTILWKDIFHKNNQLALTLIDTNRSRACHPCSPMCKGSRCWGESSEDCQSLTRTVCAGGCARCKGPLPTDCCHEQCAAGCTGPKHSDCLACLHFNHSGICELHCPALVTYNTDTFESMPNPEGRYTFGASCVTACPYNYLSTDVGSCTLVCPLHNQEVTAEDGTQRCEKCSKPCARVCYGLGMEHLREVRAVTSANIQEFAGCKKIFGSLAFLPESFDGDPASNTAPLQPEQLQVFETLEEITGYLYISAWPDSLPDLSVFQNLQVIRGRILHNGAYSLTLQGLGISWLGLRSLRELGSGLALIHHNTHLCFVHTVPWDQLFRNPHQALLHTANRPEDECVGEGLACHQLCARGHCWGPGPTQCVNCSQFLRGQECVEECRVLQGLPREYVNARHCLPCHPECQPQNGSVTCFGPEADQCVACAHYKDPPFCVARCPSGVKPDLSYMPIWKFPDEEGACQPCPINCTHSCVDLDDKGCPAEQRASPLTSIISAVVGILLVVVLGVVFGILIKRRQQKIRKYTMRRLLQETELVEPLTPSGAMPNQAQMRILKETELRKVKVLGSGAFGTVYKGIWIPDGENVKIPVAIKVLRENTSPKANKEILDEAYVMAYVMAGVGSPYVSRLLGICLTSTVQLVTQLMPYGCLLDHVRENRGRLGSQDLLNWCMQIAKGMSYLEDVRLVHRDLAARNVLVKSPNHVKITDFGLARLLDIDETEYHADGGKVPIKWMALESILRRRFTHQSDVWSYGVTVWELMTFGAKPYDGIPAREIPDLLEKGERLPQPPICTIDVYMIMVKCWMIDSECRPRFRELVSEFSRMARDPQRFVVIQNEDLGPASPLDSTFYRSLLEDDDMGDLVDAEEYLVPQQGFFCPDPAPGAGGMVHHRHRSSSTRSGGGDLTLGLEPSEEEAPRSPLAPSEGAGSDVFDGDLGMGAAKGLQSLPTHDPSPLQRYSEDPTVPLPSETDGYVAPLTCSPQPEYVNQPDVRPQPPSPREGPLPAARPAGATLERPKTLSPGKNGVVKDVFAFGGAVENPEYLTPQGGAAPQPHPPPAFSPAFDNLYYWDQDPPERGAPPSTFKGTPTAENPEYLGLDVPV
Source text: A compound's ability in selectively inhibiting Her2 exon 20 YVMA insertion mutations can be assessed using Ba/F3 cells, a murine pro-B cell line, which have been transduced with Her2 Exon20 YVMA insertions. An expression vector, pLVX-IRES puro (Clontech) coding for human EGFR exon 20 insertions YVMA (A775_G776ins YVMA), was transfected into HEK293 cells by the Trans-Lentiviral ORF Packaging System (Thermo Scientific), to produce virus encoding EGFR exon 20 insertions. Ba/F3 (DSMZ) cells maintained in RPM11640 medium supplemented with 10% fetal bovine serum, 200 pM L-glutamine/200 μg/mL penicillin/200 μg/mL streptomycin (Life Technology) and 10 ng/mL IL-3 (R&D system), were infected by EGFR Exon20 virus and subsequently selected by puromycin (Life Technology) selection and IL-3 depletion. Ba/F3 cells expressing Her2 Exon20 YVMA insertions (named Ba/F3-Her2 Exon20 YVMA) can proliferate in the absence of IL-3. The anti-proliferative activity of compounds was determined as follows: BaF3-Her2 Exon20 YVMA cells seeded in 96 well plates (2500 cells/well) were treated with test compound (dissolved in DMSO) at a series of concentrations (4-fold dilution, top concentration: 10,000 nM). The plates were incubated for 72 h in a 37° C. incubator with 5% CO2, and the number of viable cells in each well were measured indirectly by CellTiter 96® Aqueous One Solution Cell Proliferation Assay (Promega; this assay is a colorimetric method for determining the number of viable cells through measurement of their metabolic activity by detection of enzymatic conversion of tetrazolium salts into blue formazan derivatives). Reagent (20 pL) was added into each well, and the plates were returned to the incubator for 2 h. The absorbance in each well was then measured at 490 nm using an Envision plate reader (Perkin Elmer). IC50 values were calculated by determining the concentration of compound required to decrease the MTS signal by 50% comparing to the DMSO control in best-fit curves using Microsoft XLfit software or Accelrys Pipeline Pilot.

[3] = target: T3, EGFR exon 19 deletion (E746-A750) and T790M mutation (Homo sapiens, UniProt P00533, DEL746-750/T790M); experiment: Ba/F3-EGFR-Del/T790M cell anti-proliferation assay (MTS); conditions: Ba/F3-EGFR-Del/T790M cells, 72 h, MTS signal
T3 construct: expressed in transfected cells; host or cells: Ba/F3 (murine pro-B) cells, lentiviral transduction with pLVX-IRES puro
T3 sequence (P00533 with tags, fused parts or gaps DEL746-750/T790M): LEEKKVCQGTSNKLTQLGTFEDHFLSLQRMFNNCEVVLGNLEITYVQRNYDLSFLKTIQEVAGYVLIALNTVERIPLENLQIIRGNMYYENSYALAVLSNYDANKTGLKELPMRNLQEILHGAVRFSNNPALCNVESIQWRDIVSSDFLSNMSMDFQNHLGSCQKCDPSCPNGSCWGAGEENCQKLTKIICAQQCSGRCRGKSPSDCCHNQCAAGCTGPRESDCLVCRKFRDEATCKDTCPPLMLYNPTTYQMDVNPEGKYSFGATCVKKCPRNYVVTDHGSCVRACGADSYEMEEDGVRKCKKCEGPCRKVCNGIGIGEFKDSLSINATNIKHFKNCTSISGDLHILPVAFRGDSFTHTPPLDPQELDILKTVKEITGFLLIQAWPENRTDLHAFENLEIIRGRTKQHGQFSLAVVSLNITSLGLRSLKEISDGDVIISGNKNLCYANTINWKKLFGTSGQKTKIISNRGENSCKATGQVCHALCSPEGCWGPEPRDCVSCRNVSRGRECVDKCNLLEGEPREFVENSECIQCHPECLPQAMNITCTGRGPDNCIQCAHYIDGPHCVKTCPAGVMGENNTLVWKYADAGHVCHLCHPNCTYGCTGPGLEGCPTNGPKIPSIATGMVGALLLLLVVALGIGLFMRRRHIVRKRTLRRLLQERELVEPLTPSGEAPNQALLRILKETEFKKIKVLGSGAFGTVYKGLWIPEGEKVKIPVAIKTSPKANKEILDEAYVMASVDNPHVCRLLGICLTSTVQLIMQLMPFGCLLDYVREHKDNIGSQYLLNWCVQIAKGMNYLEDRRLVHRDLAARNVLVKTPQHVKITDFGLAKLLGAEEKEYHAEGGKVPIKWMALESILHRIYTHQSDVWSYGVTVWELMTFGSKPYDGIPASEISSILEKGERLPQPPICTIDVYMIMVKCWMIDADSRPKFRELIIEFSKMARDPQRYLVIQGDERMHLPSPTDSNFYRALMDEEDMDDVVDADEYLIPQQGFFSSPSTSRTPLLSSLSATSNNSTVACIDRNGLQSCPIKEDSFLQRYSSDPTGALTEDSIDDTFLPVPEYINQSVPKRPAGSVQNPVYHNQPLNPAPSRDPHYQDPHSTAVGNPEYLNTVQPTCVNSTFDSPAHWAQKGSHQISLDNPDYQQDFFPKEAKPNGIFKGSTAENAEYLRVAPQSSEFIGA
Source text: A compound's ability in selectively inhibiting EGFR exon 19 deletion and T790M concurrent mutations can be assessed using Ba/F3 cells, a murine pro-B cell line, which have been transduced with EGFR exon 19 deletion and T790M mutation. An expression vector, pLVX-IRES puro (Clontech) coding for human EGFR E746-A750 deletion and T790M Mutation, was transfected into HEK293 cells by the Trans-Lentiviral ORF Packaging System (Thermo Scientific), to produce virus encoding EGFR exon 19 deletion and T790M mutations. Ba/F3 (DSMZ) cells maintained in RPM11640 medium supplemented with 10% fetal bovine serum, 200 pM L-glutamine/200 μg/mL penicillin/200 μg/mL streptomycin (Life Technology) and 10 ng/mL IL-3 (R&D system), were infected by EGFR E746-A750 deletion and T790M Mutation virus and subsequently selected by puromycin (Life Technology) selection and IL-3 depletion. Ba/F3 cells expressing EGFR E746-A750 deletion and T790M Mutation (named Ba/F3-EGFR-Del/T790M) can proliferate in the absence of IL-3. The anti-proliferative activity of compounds was determined as follows: BaF3-EGFR-Del/T790M cells seeded in 96 well plates (2500 cells/well) were treated with test compound (dissolved in DMSO) at a series of concentrations (4-fold dilution, top concentration: 10,000 nM). The plates were incubated for 72 h in a 37° C. incubator with 5% CO2, and the number of viable cells in each well were measured indirectly by CellTiter 96® Aqueous One Solution Cell Proliferation Assay (Promega; this assay is a colorimetric method for determining the number of viable cells through measurement of their metabolic activity by detection of enzymatic conversion of tetrazolium salts into blue formazan derivatives). Reagent (20 pL) was added into each well, and the plates were returned to the incubator for 2 h. The absorbance in each well was then measured at 490 nm using an Envision plate reader (Perkin Elmer). IC50 values were calculated by determining the concentration of compound required to decrease the MTS signal by 50% comparing to the DMSO control in best-fit curves using Microsoft XLfit software or Accelrys Pipeline Pilot.

| pIC50 [2] | SMILES | EGFR exon 21 L858R and T790M mutation IC50 [1] | EGFR exon 19 deletion and T790M mutation IC50 [3] |
| --- | --- | --- | --- |
| 6.30 to 7.00 | C=CC(=O)Nc1cc(Nc2nccc(-c3c4n(c5ccccc35)CCOC4)n2)c(OC)cc1N(C)CCN(C)C [Example 1, N-(5-((4-(3,4-dihydro-1H-[1,4]oxazino[4,3-a]indol-10-yl)pyrimidin-2-yl)amino)-2-((2-(dimethylamino)ethyl)(methyl)amino)-4-methoxyphenyl)acrylamide] | A (Group A compounds have an IC50 value for the indicated mutant below about 100 nM) | A (Group A compounds have an IC50 value for the indicated mutant below about 100 nM) |
| 6.30 to 7.00 | C=CC(=O)Nc1cc(Nc2nccc(-c3c4n(c5ccccc35)CC(O)CC4)n2)c(OC)cc1N(C)CCN(C)C (stereo not drawn) [Example 3, N-(2-((2-(dimethylamino)ethyl)(methyl)amino)-5-((4-(7-hydroxy-6,7,8,9-tetrahydropyrido[1,2-a]indol-10-yl)pyrimidin-2-yl)amino)-4-methoxyphenyl)acrylamide] | A (Group A compounds have an IC50 value for the indicated mutant below about 100 nM) | A (Group A compounds have an IC50 value for the indicated mutant below about 100 nM) |
| 6.30 to 7.00 | C=CC(=O)Nc1cc(Nc2nccc(-c3c4n(c5ccccc35)CCCC4)n2)c(OC)cc1N(C)CCN(C)C [Example 5, N-(2-((2-(dimethylamino)ethyl)(methyl)amino)-4-methoxy-5-((4-(6,7,8,9-tetrahydropyrido[1,2-a]indol-10-yl)pyrimidin-2-yl)amino)phenyl)acrylamide] | A (Group A compounds have an IC50 value for the indicated mutant below about 100 nM) | A (Group A compounds have an IC50 value for the indicated mutant below about 100 nM) |
| 6.30 to 7.00 | C=CC(=O)Nc1cc(Nc2nccc(-c3c4n(c5ccccc35)CC(OC)CC4)n2)c(OC)cc1N(C)CCN(C)C (stereo not drawn) [Example 7, N-(2-((2-(dimethylamino)ethyl)(methyl)amino)-4-methoxy-5-((4-(7-methoxy-6,7,8,9-tetrahydropyrido[1,2-a]indol-10-yl)pyrimidin-2-yl)amino)phenyl)acrylamide] | A (Group A compounds have an IC50 value for the indicated mutant below about 100 nM) | A (Group A compounds have an IC50 value for the indicated mutant below about 100 nM) |

The remaining lines, values behind:

| SMILES | pIC50 [2] | EGFR exon 21 L858R and T790M mutation IC50 [1] | EGFR exon 19 deletion and T790M mutation IC50 [3] |
| --- | --- | --- | --- |
| C=CC(=O)Nc1cc(Nc2nccc(-c3c4n(c5ccccc35)CCN(C)C4=O)n2)c(OC)cc1N(C)CCN(C)C [Example 2, N-(2-((2-(dimethylamino)ethyl)(methyl)amino)-4-methoxy-5-((4-(2-methyl-1-oxo-1,2,3,4-tetrahydropyrazino[1,2-a]indol-10-yl)pyrimidin-2-yl)amino)phenyl)acrylamide] | < 6.00 | A (Group A compounds have an IC50 value for the indicated mutant below about 100 nM) | A (Group A compounds have an IC50 value for the indicated mutant below about 100 nM) |
| C=CC(=O)Nc1cc(Nc2nccc(-c3c4n(c5ccccc35)CC3OC(C)(C)OC3C4)n2)c(OC)cc1N(C)CCN(C)C (stereo not drawn) [Example 4, N-(5-((4-(cis-2,2-dimethyl-3a,4,11,11a-tetrahydro-[1,3]dioxolo[4′,5′:4,5]pyrido[1,2-a]indol-10-yl)pyrimidin-2-yl)amino)-2-((2-(dimethylamino)ethyl)(methyl)amino)-4-methoxyphenyl)acrylamide] | > 7.00 | A (Group A compounds have an IC50 value for the indicated mutant below about 100 nM) | A (Group A compounds have an IC50 value for the indicated mutant below about 100 nM) |
| C=CC(=O)Nc1cc(Nc2nccc(-c3c4n(c5ccccc35)CC(O)C(O)C4)n2)c(OC)cc1N(C)CCN(C)C (stereo not drawn) [Example 6, N-(5-((4-(cis-7,8-dihydroxy-6,7,8,9-tetrahydropyrido[1,2-a]indol-10-yl)pyrimidin-2-yl)amino)-2-((2-(dimethylamino)ethyl)(methyl)amino)-4-methoxyphenyl)acrylamide] | 6.30 to 7.00 | A (Group A compounds have an IC50 value for the indicated mutant below about 100 nM) | A (Group A compounds have an IC50 value for the indicated mutant below about 100 nM) |
| C=CC(=O)Nc1cc(Nc2nccc(-n3c4c(c5ccccc53)CC(O)CC4)n2)c(OC)cc1N(C)CCN(C)C (stereo not drawn) [Example 10, N-(2-((2-(dimethylamino)ethyl)(methyl)amino)-5-((4-(3-hydroxy-1,2,3,4-tetrahydro-9H-carbazol-9-yl)pyrimidin-2-yl)amino)-4-methoxyphenyl)acrylamide] | > 7.00 | A (Group A compounds have an IC50 value for the indicated mutant below about 100 nM) | A (Group A compounds have an IC50 value for the indicated mutant below about 100 nM) |
